Measured values reported in PMC3783656 (Bioorganic & medicinal chemistry letters, 2013).
≈ marks a conversion by molar mass, not a printed value.

What was measured:
[1] = molecular target: ROCK2 (Homo sapiens, UniProt O75116); assay: KINOMEscan kinase binding; conditions: 10 μM; % of kinase remaining bound to bead-bound ligand
[2] = Microsome stability, rat liver microsomes; conditions: rat liver microsomes; second value of h/r/m
[3] = molecular target: RIOK3 (Homo sapiens, UniProt O14730); assay: KINOMEscan kinase binding; conditions: 10 μM; % of kinase remaining bound to bead-bound ligand
[4] = Microsome stability, mouse liver microsomes; conditions: mouse liver microsomes; third value of h/r/m
[5] = molecular target: FLT3 (D835H) (Homo sapiens, UniProt P36888, D835H); assay: KINOMEscan kinase binding; conditions: 10 μM; % of kinase remaining bound to bead-bound ligand
[6] = molecular target: NLK (Homo sapiens, UniProt Q9UBE8); assay: KINOMEscan kinase binding; conditions: 10 μM; % of kinase remaining bound to bead-bound ligand
[7] = molecular target: T1, CK1δ (Homo sapiens, UniProt P48730); assay: CK1δ inhibition, Reaction Biology Corp.; format: biochemical; conditions: read-out: IC50 CK1δ; data obtained by Reaction Biology Corp.
[8] = tested on: FLT3 (N841L); assay: KINOMEscan kinase binding; conditions: 10 μM; % of kinase remaining bound to bead-bound ligand
[9] = molecular target: CSNK1A1 (Homo sapiens, UniProt P48729); assay: KINOMEscan kinase binding; conditions: 10 μM; % of kinase remaining bound to bead-bound ligand
[10] = molecular target: T1, CK1δ; assay: Kinetic analysis; format: biochemical; conditions: ATP competitive
[11] = molecular target: CSNK1E [CK1ε] (Homo sapiens, UniProt P49674); assay: KINOMEscan kinase binding; conditions: 10 μM; % of kinase remaining bound to bead-bound ligand
[12] = molecular target: LATS2 (Homo sapiens, UniProt Q9NRM7); assay: KINOMEscan kinase binding; conditions: 10 μM; % of kinase remaining bound to bead-bound ligand
[13] = Solubility in PBS buffer; format: physicochemical
[14] = molecular target: CDK4/cyclin D1 (Homo sapiens, UniProt P11802); assay: KINOMEscan kinase binding; conditions: 10 μM; % of kinase remaining bound to bead-bound ligand
[15] = molecular target: PRKCQ (Homo sapiens, UniProt Q04759); assay: KINOMEscan kinase binding; conditions: 10 μM; % of kinase remaining bound to bead-bound ligand
[16] = molecular target: CSNK1A1L (Homo sapiens, UniProt Q8N752); assay: KINOMEscan kinase binding; conditions: 10 μM; % of kinase remaining bound to bead-bound ligand
[17] = molecular target: CSNK1D [CK1δ] (Homo sapiens, UniProt P48730); assay: KINOMEscan kinase binding; conditions: 10 μM; % of kinase remaining bound to bead-bound ligand
[18] = molecular target: BMP2K (Homo sapiens, UniProt Q9NSY1); assay: KINOMEscan kinase binding; conditions: 10 μM; % of kinase remaining bound to bead-bound ligand
[19] = Microsome stability, human liver microsomes; conditions: human liver microsomes; first value of h/r/m
[20] = molecular target: MARK2 (Homo sapiens, UniProt Q7KZI7); assay: KINOMEscan kinase binding; conditions: 10 μM; % of kinase remaining bound to bead-bound ligand
[21] = tested on: FLT3 (ITD); assay: KINOMEscan kinase binding; conditions: 10 μM; % of kinase remaining bound to bead-bound ligand
[22] = Solubility in DMEM/10% FBS; format: physicochemical
[23] = Mouse PK studies; format: in vivo; conditions: IV dosing, 1 mg/kg, 10/10/80 DMSO/Tween/water
[24] = molecular target: T2, FLT3 (Homo sapiens, UniProt P36888); assay: Off-target kinase inhibition, Reaction Biology Corporation; format: biochemical; conditions: read-out: IC50 for inhibition of off-target kinase FLT3; data obtained by Reaction Biology Corporation
T2 sequence (P36888 27-993): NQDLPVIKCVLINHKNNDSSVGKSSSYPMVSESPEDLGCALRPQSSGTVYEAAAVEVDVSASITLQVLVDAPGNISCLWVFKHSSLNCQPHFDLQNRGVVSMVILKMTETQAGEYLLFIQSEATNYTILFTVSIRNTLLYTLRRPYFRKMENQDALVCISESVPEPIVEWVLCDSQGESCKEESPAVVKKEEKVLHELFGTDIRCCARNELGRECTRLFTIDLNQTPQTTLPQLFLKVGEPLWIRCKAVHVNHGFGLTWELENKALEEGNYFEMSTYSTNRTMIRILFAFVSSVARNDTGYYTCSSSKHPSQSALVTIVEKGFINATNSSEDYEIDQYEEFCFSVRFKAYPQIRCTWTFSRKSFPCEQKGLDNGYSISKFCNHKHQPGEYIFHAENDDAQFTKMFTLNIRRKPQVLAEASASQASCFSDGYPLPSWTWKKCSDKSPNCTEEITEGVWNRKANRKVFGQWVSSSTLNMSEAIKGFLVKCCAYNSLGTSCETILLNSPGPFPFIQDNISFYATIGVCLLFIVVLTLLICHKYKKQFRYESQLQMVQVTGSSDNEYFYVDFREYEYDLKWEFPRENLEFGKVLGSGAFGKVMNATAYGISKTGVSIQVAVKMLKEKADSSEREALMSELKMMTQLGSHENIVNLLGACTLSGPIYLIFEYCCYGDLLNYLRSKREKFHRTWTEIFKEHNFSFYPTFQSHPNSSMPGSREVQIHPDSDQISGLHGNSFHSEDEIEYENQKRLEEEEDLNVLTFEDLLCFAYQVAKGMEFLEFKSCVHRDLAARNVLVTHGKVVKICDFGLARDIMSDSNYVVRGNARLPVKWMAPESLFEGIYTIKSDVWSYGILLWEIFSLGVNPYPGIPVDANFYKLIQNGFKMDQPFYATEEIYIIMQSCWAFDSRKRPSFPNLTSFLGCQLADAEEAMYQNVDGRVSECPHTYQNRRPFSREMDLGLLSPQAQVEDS

[25] = molecular target: CDK13 (Homo sapiens, UniProt Q14004); assay: KINOMEscan kinase binding; conditions: 10 μM; % of kinase remaining bound to bead-bound ligand
[26] = molecular target: MAST1 (Homo sapiens, UniProt Q9Y2H9); assay: KINOMEscan kinase binding; conditions: 10 μM; % of kinase remaining bound to bead-bound ligand
[27] = molecular target: CDK7 (Homo sapiens, UniProt P50613); assay: KINOMEscan kinase binding; conditions: 10 μM; % of kinase remaining bound to bead-bound ligand
[28] = tested on: human melanoma A375 cell line; assay: MTT assay against A375 melanoma cells; format: cell-based; conditions: read-out: MTT assay A375 EC50; human A375 melanoma cell line
[29] = molecular target: CDK4/cyclin D3 (Homo sapiens, UniProt P11802); assay: KINOMEscan kinase binding; conditions: 10 μM; % of kinase remaining bound to bead-bound ligand
[30] = molecular target: FLT3 (D835Y) (Homo sapiens, UniProt P36888, D835Y); assay: KINOMEscan kinase binding; conditions: 10 μM; % of kinase remaining bound to bead-bound ligand
[31] = molecular target: T2, FLT3; assay: KINOMEscan kinase binding; conditions: 10 μM; % of kinase remaining bound to bead-bound ligand
[32] = tested on: 442 kinases; assay: DiscoverRX KINOMEscan analysis of 442 kinases; format: binding; conditions: 10 μM, KINOMEscan of 442 kinases
[33] = molecular target: FLT3 (K663Q) (Homo sapiens, UniProt P36888, K663Q); assay: KINOMEscan kinase binding; conditions: 10 μM; % of kinase remaining bound to bead-bound ligand
[34] = molecular target: TAOK3 (Homo sapiens, UniProt Q9H2K8); assay: KINOMEscan kinase binding; conditions: 10 μM; % of kinase remaining bound to bead-bound ligand
[35] = molecular target: MELK (Homo sapiens, UniProt Q14680); assay: KINOMEscan kinase binding; conditions: 10 μM; % of kinase remaining bound to bead-bound ligand

Chain of CSNK1A1 (P48729 whole entry): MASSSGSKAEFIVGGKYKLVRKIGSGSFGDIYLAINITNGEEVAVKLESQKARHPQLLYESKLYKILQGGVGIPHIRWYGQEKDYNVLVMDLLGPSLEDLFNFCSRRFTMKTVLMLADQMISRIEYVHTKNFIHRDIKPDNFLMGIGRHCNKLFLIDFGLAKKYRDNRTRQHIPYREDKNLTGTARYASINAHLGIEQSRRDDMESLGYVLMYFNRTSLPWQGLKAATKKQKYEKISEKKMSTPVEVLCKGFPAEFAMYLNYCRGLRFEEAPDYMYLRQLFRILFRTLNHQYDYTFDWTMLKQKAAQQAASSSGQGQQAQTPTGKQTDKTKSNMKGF
Chain of CSNK1A1L (Q8N752 whole entry): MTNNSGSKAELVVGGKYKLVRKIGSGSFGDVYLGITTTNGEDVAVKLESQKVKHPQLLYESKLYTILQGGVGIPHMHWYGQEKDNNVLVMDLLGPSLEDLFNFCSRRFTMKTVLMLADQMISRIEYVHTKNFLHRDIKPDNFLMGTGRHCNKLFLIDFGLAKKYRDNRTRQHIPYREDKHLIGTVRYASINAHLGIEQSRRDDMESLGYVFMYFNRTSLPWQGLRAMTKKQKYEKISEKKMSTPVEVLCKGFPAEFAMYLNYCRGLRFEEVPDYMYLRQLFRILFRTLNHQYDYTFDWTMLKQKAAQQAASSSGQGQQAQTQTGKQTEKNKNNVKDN
Chain of RIOK3 (O14730 whole entry): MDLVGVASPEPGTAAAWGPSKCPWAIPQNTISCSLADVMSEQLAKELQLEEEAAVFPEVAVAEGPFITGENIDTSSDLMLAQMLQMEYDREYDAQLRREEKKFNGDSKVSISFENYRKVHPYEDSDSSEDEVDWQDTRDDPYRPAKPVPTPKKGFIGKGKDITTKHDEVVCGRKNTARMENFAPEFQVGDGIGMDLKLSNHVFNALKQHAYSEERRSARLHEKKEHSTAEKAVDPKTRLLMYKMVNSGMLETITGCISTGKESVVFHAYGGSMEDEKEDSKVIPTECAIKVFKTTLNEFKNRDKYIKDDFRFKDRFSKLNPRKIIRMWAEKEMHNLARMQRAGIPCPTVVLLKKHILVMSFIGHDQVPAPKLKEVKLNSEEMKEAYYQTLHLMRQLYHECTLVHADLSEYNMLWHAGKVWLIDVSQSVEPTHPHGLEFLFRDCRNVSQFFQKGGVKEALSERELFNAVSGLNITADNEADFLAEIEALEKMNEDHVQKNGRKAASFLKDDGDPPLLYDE
Chain of PRKCQ (Q04759 whole entry): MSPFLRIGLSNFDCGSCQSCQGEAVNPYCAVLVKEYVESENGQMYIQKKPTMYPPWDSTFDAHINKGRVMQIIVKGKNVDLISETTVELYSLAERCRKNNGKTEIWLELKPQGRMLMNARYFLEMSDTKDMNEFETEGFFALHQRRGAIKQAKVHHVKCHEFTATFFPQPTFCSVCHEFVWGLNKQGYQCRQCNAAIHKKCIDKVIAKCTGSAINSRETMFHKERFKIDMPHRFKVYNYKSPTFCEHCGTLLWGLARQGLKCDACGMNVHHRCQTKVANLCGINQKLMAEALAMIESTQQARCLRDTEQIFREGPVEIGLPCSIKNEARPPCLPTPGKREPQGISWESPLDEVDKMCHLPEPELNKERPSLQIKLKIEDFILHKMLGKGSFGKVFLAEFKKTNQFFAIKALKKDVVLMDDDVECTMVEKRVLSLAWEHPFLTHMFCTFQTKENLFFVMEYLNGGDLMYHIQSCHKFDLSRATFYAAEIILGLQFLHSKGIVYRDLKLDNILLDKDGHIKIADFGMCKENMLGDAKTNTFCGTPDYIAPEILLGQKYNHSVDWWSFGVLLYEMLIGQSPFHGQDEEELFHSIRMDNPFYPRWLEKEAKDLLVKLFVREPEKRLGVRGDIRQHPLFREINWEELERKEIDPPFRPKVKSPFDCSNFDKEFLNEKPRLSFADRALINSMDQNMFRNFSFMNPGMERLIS
Chain of LATS2 (Q9NRM7 whole entry): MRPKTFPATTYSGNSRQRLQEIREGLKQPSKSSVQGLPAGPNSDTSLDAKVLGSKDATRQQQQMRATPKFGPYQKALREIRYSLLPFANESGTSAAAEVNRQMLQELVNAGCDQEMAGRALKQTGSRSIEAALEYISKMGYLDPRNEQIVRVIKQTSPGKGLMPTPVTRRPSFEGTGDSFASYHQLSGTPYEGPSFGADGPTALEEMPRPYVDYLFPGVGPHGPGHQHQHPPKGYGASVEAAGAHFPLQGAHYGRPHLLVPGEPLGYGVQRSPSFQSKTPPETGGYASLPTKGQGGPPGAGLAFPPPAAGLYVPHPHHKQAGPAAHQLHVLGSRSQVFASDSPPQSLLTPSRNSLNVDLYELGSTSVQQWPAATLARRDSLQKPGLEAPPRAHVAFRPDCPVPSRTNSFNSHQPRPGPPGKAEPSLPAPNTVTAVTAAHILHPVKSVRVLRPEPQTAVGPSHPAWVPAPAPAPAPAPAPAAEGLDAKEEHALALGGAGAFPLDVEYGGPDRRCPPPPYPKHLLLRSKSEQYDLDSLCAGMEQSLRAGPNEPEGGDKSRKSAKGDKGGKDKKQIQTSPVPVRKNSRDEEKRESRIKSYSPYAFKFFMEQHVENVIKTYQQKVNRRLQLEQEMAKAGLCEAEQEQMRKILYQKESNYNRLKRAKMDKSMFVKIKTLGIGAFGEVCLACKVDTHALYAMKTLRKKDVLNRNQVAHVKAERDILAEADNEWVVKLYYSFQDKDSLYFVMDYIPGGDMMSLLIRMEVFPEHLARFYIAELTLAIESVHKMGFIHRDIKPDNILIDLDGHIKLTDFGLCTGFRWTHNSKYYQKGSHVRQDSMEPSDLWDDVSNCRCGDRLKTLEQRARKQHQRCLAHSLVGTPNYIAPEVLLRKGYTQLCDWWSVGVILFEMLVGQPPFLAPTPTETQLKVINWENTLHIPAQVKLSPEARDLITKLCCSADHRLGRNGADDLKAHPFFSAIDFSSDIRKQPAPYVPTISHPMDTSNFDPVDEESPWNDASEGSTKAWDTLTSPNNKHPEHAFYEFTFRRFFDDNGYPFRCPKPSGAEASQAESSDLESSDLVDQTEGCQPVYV
Chain of CDK7 (P50613 whole entry): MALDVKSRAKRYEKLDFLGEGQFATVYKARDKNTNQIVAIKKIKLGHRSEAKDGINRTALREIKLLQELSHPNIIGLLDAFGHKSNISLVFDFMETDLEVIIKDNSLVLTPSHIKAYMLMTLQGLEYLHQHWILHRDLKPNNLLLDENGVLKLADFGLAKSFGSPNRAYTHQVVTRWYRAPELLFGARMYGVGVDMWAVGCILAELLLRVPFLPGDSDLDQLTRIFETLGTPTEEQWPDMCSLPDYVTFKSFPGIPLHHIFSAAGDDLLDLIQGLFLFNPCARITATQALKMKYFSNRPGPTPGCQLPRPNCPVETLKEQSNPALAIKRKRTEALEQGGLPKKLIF
Chain of CDK4/cyclin D1 (P11802 whole entry): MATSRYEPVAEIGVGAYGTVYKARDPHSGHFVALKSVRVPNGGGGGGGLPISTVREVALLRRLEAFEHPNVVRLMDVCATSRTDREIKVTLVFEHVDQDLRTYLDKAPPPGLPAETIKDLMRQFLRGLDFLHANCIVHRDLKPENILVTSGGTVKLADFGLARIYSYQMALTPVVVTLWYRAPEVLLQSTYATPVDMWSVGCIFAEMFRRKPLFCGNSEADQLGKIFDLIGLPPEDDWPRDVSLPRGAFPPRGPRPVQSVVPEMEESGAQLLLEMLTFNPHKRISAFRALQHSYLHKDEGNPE
Chain of CDK4/cyclin D1 (P24385 whole entry partner): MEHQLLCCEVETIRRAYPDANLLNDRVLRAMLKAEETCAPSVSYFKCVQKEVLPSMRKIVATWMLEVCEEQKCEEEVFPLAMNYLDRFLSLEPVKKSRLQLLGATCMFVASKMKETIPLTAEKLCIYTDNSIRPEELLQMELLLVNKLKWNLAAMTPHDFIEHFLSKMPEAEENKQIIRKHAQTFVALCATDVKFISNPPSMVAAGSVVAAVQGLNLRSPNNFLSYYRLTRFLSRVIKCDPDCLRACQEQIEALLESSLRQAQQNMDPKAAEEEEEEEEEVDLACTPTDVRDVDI
Chain of CDK4/cyclin D3 (P11802 whole entry): as the sequence (P11802 whole entry) above
Chain of CDK4/cyclin D3 (P30281 whole entry partner): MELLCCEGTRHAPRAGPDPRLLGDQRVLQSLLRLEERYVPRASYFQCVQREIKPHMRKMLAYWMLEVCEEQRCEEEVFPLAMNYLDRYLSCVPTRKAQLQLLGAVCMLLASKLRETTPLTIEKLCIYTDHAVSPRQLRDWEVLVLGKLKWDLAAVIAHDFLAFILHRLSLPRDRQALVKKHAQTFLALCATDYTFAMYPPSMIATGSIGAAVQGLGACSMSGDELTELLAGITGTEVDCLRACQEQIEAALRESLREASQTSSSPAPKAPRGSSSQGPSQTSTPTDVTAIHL
T1 sequence (P48730 whole entry): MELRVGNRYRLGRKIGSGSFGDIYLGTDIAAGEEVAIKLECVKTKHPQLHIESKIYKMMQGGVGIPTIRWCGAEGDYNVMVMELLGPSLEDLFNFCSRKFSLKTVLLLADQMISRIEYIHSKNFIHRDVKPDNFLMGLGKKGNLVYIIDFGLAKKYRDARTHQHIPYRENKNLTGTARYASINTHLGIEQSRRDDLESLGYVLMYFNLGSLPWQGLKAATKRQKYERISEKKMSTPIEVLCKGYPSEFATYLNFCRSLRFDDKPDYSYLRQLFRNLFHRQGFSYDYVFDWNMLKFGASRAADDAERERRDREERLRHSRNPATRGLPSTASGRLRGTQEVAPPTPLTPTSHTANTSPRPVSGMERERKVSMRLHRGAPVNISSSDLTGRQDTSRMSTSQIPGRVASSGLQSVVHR
Chain of CSNK1D [CK1δ] (P48730 whole entry): as above

Compound	% control activity, RIOK3 [3] [%]	% control activity, CSNK1A1 [9] [%]	% control activity, LATS2 [12] [%]	% control activity, CDK4/cyclin D1 [14] [%]	% control activity, PRKCQ [15] [%]	% control activity, CSNK1A1L [16] [%]	% control activity, BMP2K [18] [%]	% control activity, MARK2 [20] [%]	% control activity, FLT3 (ITD) [21] [%]	AUC [23] [µM·h]	Cl [23] [mL/min/kg]	Cmax [23] [µM]	T1/2 [23] [min]	IC50 [24] [nM]	% control activity, CDK13 [25] [%]	% control activity, CDK7 [27] [%]	EC50 [28] [nM]	% control activity, CDK4/cyclin D3 [29] [%]	% control activity, FLT3 [31] [%]	other results
O=[N+]([O-])c1cccc2[nH]c(CNc3nc(N4CCOCC4)nc4c3ncn4-c3ccsc3)nc12 [SR-1277]	9.6	63	100	56	100	9.6	6.2	100	3.7	1.26	2.8	1.2	85.2	305	1	72	22	56	3.4	% control activity, ROCK2 [1]: 100%; Microsome stability T1/2 (rat) [2]: 5 min; Microsome stability T1/2 (mouse) [4]: 2 min; % control activity, FLT3 (D835H) [5]: 7.3%; % control activity, NLK [6]: 38%; IC50 [7]: 49 nM; % control activity, FLT3 (N841L) [8]: 11%; Ki [10]: 69 nM; % control activity, CSNK1E [CK1ε] [11]: 0.5%; Solubility [13]: 1 µM (≈ 0.478 µg/mL); % control activity, CSNK1D [CK1δ] [17]: 4.2%; Microsome stability T1/2 (human) [19]: 7 min; Solubility [22]: 1 µM (≈ 0.478 µg/mL); % control activity, MAST1 [26]: 100%; % control activity, FLT3 (D835Y) [30]: 11%
Fc1cccc(-n2cnc3c(NCc4nc5c(F)c(F)ccc5[nH]4)nc(N4CCOCC4)nc32)c1 [SR-3029]	100	22	26	4.4	88	22	39	7.3	19	6.35	5.5	7.3	54	3000	100	38	86	19	3.7	Number of off-target kinases inhibited ≥90% [32]: 6; % control activity, FLT3 (K663Q) [33]: 12%; % control activity, TAOK3 [34]: 34%; % control activity, MELK [35]: 22%
